Read-outs that look alike come from different tables or passages of the source.
Key:
[1] = tested on: acetylation level of α-tubulin in HCT116 cells; experiment: Assay on acetylation level of α-tubulin, HCT116 cells; assay type: cell-based; conditions: Homo sapiens, HCT-116, 6 h
Method: A375/HCT116/HCC827 cells at a logarithmic growth phase were taken, digested with a […] (trypsin), centrifuged, counted, and plated in a 96-well plate at an appropriate cell density (30,000 cells/well) at 100 µL/well, and an appropriate amount of PBS was added around the plate for water sealing. The next day, the cells were treated with the compounds at different concentrations (starting at 100 μM, 5-fold dilution, 9 concentration gradients). After 6 h, the medium was pipetted out and the cells were washed twice with 100 μL of PBST. The cells were then immobilized in 4% paraformaldehyde, and the plate was incubated at room temperature for 20 min. The stationary liquid was discarded and the cells were washed with PBST. 150 μL of special blocking buffer (containing 1% Triton-100) was added to each well for blocking at room temperature for 2 h, and the plate was washed with PBS to remove excess blocking buffer. α-tubulin (DM1A) mouse mAb and acetyl-α-tubulin (Lys40) (D20G3) XP rabbit mAb were diluted at a 1:2000 ratio with a blocking buffer containing 0.033% Triton-100. The dilutions were added to the 96-well plate and the plate was incubated overnight at 4° C. Meanwhile, a blank control group was set. The next day, the plate was washed twice with PBST. Secondary anti-mouse IgG (H+L) (DyLight™ 680 conjugate) and anti-rabbit IgG (H+L) (DyLight™ 800 conjugate) were diluted at a 1:2000 ratio with a blocking buffer containing 0.033% Triton-100. The dilutions were added to a 96-well plate and the plate was incubated at room temperature for 2 h. The plate was washed twice with PBST and once with PBS. Fluorescence signals at 700 nm and 800 nm were detected with a Li-COR Odyssey two-color near-infrared laser imager.

HDAC6 = HDAC6 (Homo sapiens (Human), UniProt Q9UBN7); experiment: HDAC6 enzymatic activity assay; assay type: biochemical
Sequence of HDAC6 (Q9UBN7 whole entry): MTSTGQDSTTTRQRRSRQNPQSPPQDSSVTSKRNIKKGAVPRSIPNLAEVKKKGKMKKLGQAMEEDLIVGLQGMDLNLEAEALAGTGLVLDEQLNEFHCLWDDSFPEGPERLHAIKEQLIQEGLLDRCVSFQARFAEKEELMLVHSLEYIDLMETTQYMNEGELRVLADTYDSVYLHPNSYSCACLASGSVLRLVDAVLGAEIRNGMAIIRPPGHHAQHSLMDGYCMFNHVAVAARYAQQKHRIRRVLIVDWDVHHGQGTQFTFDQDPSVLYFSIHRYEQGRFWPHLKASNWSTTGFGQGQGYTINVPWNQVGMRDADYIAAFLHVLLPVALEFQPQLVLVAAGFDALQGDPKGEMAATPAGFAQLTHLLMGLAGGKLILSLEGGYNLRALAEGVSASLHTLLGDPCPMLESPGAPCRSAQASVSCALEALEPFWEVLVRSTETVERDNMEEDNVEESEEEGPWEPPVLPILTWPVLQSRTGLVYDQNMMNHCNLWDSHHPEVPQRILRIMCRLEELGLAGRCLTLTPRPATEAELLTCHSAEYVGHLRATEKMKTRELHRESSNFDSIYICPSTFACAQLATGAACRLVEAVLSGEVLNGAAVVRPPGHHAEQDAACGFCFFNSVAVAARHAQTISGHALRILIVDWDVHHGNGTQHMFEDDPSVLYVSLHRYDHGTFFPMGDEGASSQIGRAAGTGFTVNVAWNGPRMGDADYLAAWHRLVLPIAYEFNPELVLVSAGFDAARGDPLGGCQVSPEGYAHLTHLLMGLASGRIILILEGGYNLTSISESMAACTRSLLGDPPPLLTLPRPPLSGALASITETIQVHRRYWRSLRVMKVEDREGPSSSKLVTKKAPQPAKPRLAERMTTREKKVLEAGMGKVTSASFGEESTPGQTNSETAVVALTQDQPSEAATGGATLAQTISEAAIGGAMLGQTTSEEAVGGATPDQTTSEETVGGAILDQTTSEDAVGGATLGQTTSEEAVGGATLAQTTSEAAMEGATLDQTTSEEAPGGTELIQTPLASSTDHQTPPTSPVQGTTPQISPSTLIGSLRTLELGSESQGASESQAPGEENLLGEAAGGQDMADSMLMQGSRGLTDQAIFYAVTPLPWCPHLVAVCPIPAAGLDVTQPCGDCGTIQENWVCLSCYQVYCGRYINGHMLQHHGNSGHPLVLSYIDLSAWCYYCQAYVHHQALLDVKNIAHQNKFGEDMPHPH
Method: The inhibitory activity of the compounds of the present application against HDAC6 was evaluated by an enzymatic activity assay. HDAC6 (Abcam), test compounds, and a 20 µM substrate solution (Ac-GAK(Ac)-AMC) were each added to a 384-well plate, and the plate was incubated at 37° C. for 30 min. […] and […] were added, and the plate was incubated at room temperature for 15 min. […] IC50 was obtained by fitting using GraphPadPrism 7.0 software.

[2] = Pharmacokinetic test in mice (IV and PO); assay type: in vivo, BALB/c mice; conditions: for Cmax / AUC(0-inf) / AUC(0-t) / MRT inf / Vd / Tmax: BALB/c, mouse, plasma; for MRT inf: read-out: MRT(0-∞); for Vd: read-out: Vz
Method: In this example, the pharmacokinetic behavior of the compounds after intravenous injection (IV) and intragastric (PO) administration in BALB/c mice was tested.
On the day of administration, mice were weighed for actual body weight and the administration volume was calculated. Each compound was tested in two groups with 3 mice in each group, one group administered by single intravenous injection and the other group of mice by single intragastric administration. Whole blood samples were collected via the orbit at prescribed time points (0.25 h, 0.5 h, 1 h, 2 h, 4 h, 8 h, and 24 h after administration). After blood sample collection, the samples were immediately transferred to labeled commercial sample tubes containing K2-EDTA (0.85-1.15 mg), followed by centrifugation (3200×g, 4° C., 10 min) and plasma collection. The plasma was transferred to a pre-cooled centrifuge tube, frozen in dry ice, and stored in an ultra-low temperature freezer at −60° C. or lower until the LC-MS/MS analysis.
Plasma concentrations were determined by a LC-MS/MS method. Plasma drug concentration data for compounds 1 and 2 were processed in a non-compartmental model using WinNonlin Version 6.3 (Pharsight, Mountain View, CA) pharmacokinetic software. The relevant pharmacokinetic parameters were calculated by a linear logarithmic trapezoid method.

[3] = Brain-to-blood drug concentration ratio of mice; assay type: in vivo; conditions: mouse, 5 mg/kg PO
Method: On the day of administration, mice were weighed for actual body weight and the administration volume was calculated. In each group of 9 mice, the compound was administered by single intravenous (IV) injection or intragastric (PO) administration. Whole blood samples were collected via the orbit at prescribed time points. After blood sample collection, the samples were immediately transferred to labeled commercial sample tubes containing K2-EDTA (0.85-1.15 mg), followed by centrifugation (3200×g, 4° C., 10 min) and plasma collection. The plasma was transferred to a pre-cooled centrifuge tube, frozen in dry ice, and stored in an ultra-low temperature freezer at −60° C. or lower until the LC-MS/MS analysis. 20 μL of a plasma sample or brain tissue homogenate was taken and 80 μL of an internal standard solution (50 ng/mL solution of propafenone in acetonitrile) was added. The plate was sealed with a film sealer at 165° C., shaken on a micro oscillator (maximum vibration speed) for 10 min, and centrifuged at 4000 rpm for 20 min using a low-speed benchtop centrifuge, 10 μL of supernatant was transferred and 90 μL of acetonitrile was added. The mixture was vortexed and mixed well, and then the plate was sealed with the film sealer at 165° C. After the mixture was vortexed and mixed well, 1 μL of supernatant was taken for LC-MS/MS analysis. Plasma drug concentration data for the compounds were processed in a non-compartmental model using WinNonlin Version 6.3 (Pharsight, Mountain View, CA) pharmacokinetic software. The relevant pharmacokinetic parameters were calculated by a linear logarithmic trapezoid method.
Data processing: brain-to-blood drug concentration ratio of mice at the same time point=drug concentration in brain tissue/drug concentration in plasma

[4] = brain, read-out: Brain drug concentration
[5] = plasma, read-out: Blood drug concentration

Row | SMILES | EC50 [1] [nM] | IC50 (HDAC6) [nM] | Cmax ([2]; po, 5 mg/kg, read-out: C0/Cmax) [µM] | AUC(0-inf) ([2]; mice, IV 1 mg/kg) [µM·h] | AUC(0-t) ([2]; mice, IV 1 mg/kg) [µM·h] | Cmax ([2]; mice, IV 1 mg/kg (C0)) [µM] | MRT inf ([2]; mice, IV 1 mg/kg) [h] | Vd ([2]; mice, IV 1 mg/kg) [L/kg] | AUC(0-inf) ([2]; mice, PO 5 mg/kg) [µM·h] | AUC(0-t) ([2]; mice, PO 5 mg/kg) [µM·h] | Tmax ([2]; mice, PO 5 mg/kg) [h] | MRT inf ([2]; mice, PO 5 mg/kg) [h] | CLz ([2]; mice, IV 1 mg/kg) [mL/min/kg] | t½z ([2]; mice, IV 1 mg/kg) [h] | F ([2]; mice, PO 5 mg/kg) [%] | t½z ([2]; mice, PO 5 mg/kg) [h] | concentration at 2 h [3, 4] [ng/mL] | Kp at 2 h ([3]; brain/plasma) | concentration at 2 h [3, 5] [ng/mL] | concentration at 1 h [3, 4] [ng/mL] | further results
1 | O=S1(=O)c2cc(-c3nnc(C(F)F)o3)ccc2CN1[C@@H](c1ccccn1)[C@H](O)c1ccc(F)cn1 (single isomer, unassigned) [Compound 84j-A] | 544 | 42.7 |  |  |  |  |  |  |  |  |  |  |  |  |  |  |  |  |  |  | 
2 | O=S1(=O)c2cc(-c3nnc(C(F)F)o3)ccc2CN1[C@@H](c1ccc(F)cn1)[C@H](O)c1ccc(F)cn1 (single isomer, unassigned) [Compound 88j-A-B] | 618 | 160 |  |  |  |  |  |  |  |  |  |  |  |  |  |  |  |  |  |  | 
3 | CC(F)(F)C(=O)N[C@H]1[C@H](N2Cc3ccc(-c4nnc(C(F)F)o4)cc3S2(=O)=O)CCCC1(F)F [Compound 7] | 245 | 56.7 |  |  |  |  |  |  |  |  |  |  |  |  |  |  |  |  |  |  | 
4 | CC(F)(F)C(=O)N[C@@H]1CCCC(F)(F)[C@H]1N1Cc2ccc(-c3nnc(C(F)F)o3)cc2S1(=O)=O [Compound 10] | 262 | 43.1 | 4.77 | 3.68 | 3.48 | 1.72 | 2.5 | 1.5 | 21.5 | 19.9 | 0.5 | 3.3 | 8.3 | 1.9 | 117.1 | 2.1 | 338 | 0.17 | 2020 |  | concentration at 8 h ([3]; brain, 8 h, read-out: Brain drug concentration): 80 ng/mL; Kp at 8 h ([3]; brain/plasma, 8 h): 0.29; concentration at 8 h ([3]; plasma, 8 h, read-out: Blood drug concentration): 277 ng/mL
5 | O=C(N[C@@H]1COCC[C@H]1N1Cc2ccc(-c3nnc(C(F)F)o3)cc2S1(=O)=O)C(F)F [Compound 13] | 133 |  | 7.13 | 4.53 | 4.42 | 3.05 | 1.85 | 1.05 | 22 | 21.4 | 0.5 | 2.63 | 8 | 1.52 | 97.0 | 1.52 | 174 | 0.09 | 1780 | 218 | Kp at 1 h ([3]; brain/plasma): 0.07; concentration at 1 h [3, 5]: 2950 ng/mL
6 | O=C(N[C@@H]1CCOC[C@H]1N1Cc2ccc(-c3nnc(C(F)F)o3)cc2S1(=O)=O)C(F)F [Compound 14] | 124 |  | 7.27 | 4.27 | 4.22 | 3.15 | 1.5 | 0.928 | 15.2 | 14.8 | 0.5 | 1.88 | 8.4 | 1.277 | 71.27 | 1.48 | 42.8 | 0.03 | 1380 | 85.6 | Kp at 1 h ([3]; brain/plasma): 0.03; concentration at 1 h [3, 5]: 2450 ng/mL
7 | O=C(N[C@@H]1CCOC[C@H]1N1Cc2ccc(-c3nnc(C(F)F)o3)cc2S1(=O)=O)C1(C(F)(F)F)CC1 [Compound 65] | 467 |  |  |  |  |  |  |  |  |  |  |  |  |  |  |  |  |  |  |  | 
8 | O=C(N[C@@H]1CCOC[C@H]1N1Cc2ccc(-c3nnc(C(F)F)o3)cc2S1(=O)=O)C(F)(F)C(F)(F)F [Compound 66] | 322 |  |  |  |  |  |  |  |  |  |  |  |  |  |  |  |  |  |  |  | 
9 | O=C(N[C@@H]1CCCC[C@H]1N1Cc2ccc(-c3nnc(C(F)F)o3)cc2S1(=O)=O)N1CCOCC1 [Compound 113] | 239 |  | 5.13 | 1.71 | 1.7 | 3.47 | 0.542 | 1.03 | 8.71 | 8.64 | 0.25 | 1.47 | 19.58 | 0.605 | 101.8 | 1.149 | 16.2 | 0.02 | 930 | 44.8 | Kp at 1 h ([3]; brain/plasma): 0.03; concentration at 1 h [3, 5]: 1400 ng/mL
10 | O=C(N[C@@H]1CCCC[C@H]1N1Cc2ccc(-c3nnc(C(F)F)o3)cc2S1(=O)=O)C1CC1 [Compound 114] | 351 | 97.5 |  |  |  |  |  |  |  |  |  |  |  |  |  |  |  |  |  |  | 

Reference: patent publication US20250257060A1, “OXADIAZOLE COMPOUND, PHARMACEUTICAL COMPOSITION COMPRISING SAME, AND USE THEREOF” (SUZHOU GENHOUSE BIO CO., LTD., priority 2022, published 2025)
